Source: PubChem BioAssay (NCI)
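Method: 48-hour compound exposure of cells in 96-well plates, five concentrations, linear interpolation of endpoints. The concentration for 50% growth inhibition is given as GI50. TGI marks complete inhibition of growth.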

Experiments:
Experiment in all cases: growth of human tumour cells (NCI), 48 h
SNB-19 CNS = system: SNB-19 CNS
UACC-62 melanoma = system: UACC-62 melanoma
RPMI-8226 leukemia = system: RPMI-8226 leukemia
MDA-MB-435 = system: MDA-MB-435
SK-MEL-2 melanoma = system: SK-MEL-2 melanoma
SK-MEL-28 melanoma = system: SK-MEL-28 melanoma
HOP-62 NSCLC = system: HOP-62 NSCLC
HCC-2998 colon = system: HCC-2998 colon
SF-295 CNS = system: SF-295 CNS
T-47D breast = system: T-47D breast

Structure (SMILES): CC(=O)Nc1ccc(Sc2ccc([N+](=O)[O-])o2)cc1
- GI50 (SNB-19 CNS): 10.1 µM
- TGI (SNB-19 CNS): 23.2 µM
- GI50 (UACC-62 melanoma): 1.83 µM
- TGI (UACC-62 melanoma): 3.84 µM
- GI50 (RPMI-8226 leukemia): 2.13 µM
- TGI (RPMI-8226 leukemia): 8.65 µM
- GI50 (MDA-MB-435): 1.7 µM
- TGI (MDA-MB-435): 3.44 µM
- GI50 (SK-MEL-2 melanoma): 2.31 µM
- TGI (SK-MEL-2 melanoma): 6.29 µM
- GI50 (SK-MEL-28 melanoma): 1.75 µM
- TGI (SK-MEL-28 melanoma): 3.6 µM
- GI50 (HOP-62 NSCLC): 3.37 µM
- TGI (HOP-62 NSCLC): 10.5 µM
- GI50 (HCC-2998 colon): 1.9 µM
- TGI (HCC-2998 colon): 3.52 µM
- GI50 (SF-295 CNS): 10.4 µM
- TGI (SF-295 CNS): 23.5 µM

Structure (SMILES): COc1ccc(/C(Cl)=C(\C=O)c2ccc([N+](=O)[O-])cc2)cc1OC
- TGI (SNB-19 CNS): > 100 µM
- TGI (UACC-62 melanoma): 16.2 µM
- TGI (RPMI-8226 leukemia): > 25.8 µM
- TGI (MDA-MB-435): 13.5 µM
- TGI (SK-MEL-2 melanoma): > 77.1 µM
- TGI (SK-MEL-28 melanoma): 30.5 µM
- TGI (HOP-62 NSCLC): > 100 µM
- TGI (T-47D breast): > 100 µM
- TGI (SF-295 CNS): 44.2 µM

Structure (SMILES): C[C@]12CCC[C@H](Cl)C1(O)C[C@H](C(=O)O)CC2 (stereo partly drawn)
- TGI (SNB-19 CNS): > 100 µM
- TGI (UACC-62 melanoma): > 100 µM
- TGI (RPMI-8226 leukemia): > 100 µM
- TGI (SK-MEL-2 melanoma): > 100 µM
- TGI (SK-MEL-28 melanoma): > 100 µM
- TGI (HOP-62 NSCLC): > 100 µM
- TGI (HCC-2998 colon): > 100 µM
- TGI (SF-295 CNS): > 100 µM

Structure (SMILES): NC(=NCCCOc1ccc(Cl)cc1)Nc1ccc(Cl)cc1
- GI50 (SNB-19 CNS): 2.46 µM
- TGI (SNB-19 CNS): 13.6 µM
- GI50 (UACC-62 melanoma): 1.88 µM
- TGI (UACC-62 melanoma): 3.94 µM
- GI50 (RPMI-8226 leukemia): 2.1 µM
- TGI (RPMI-8226 leukemia): 4.66 µM
- GI50 (MDA-MB-435): 1.76 µM
- TGI (MDA-MB-435): 3.37 µM
- GI50 (SK-MEL-2 melanoma): 2.32 µM
- TGI (SK-MEL-2 melanoma): 4.72 µM
- GI50 (SK-MEL-28 melanoma): 1.89 µM
- TGI (SK-MEL-28 melanoma): 3.64 µM
- GI50 (HOP-62 NSCLC): 2.53 µM
- TGI (HOP-62 NSCLC): 8.01 µM
- GI50 (HCC-2998 colon): 1.5 µM
- TGI (HCC-2998 colon): 3.12 µM
- GI50 (SF-295 CNS): 2.42 µM
- TGI (SF-295 CNS): 6.9 µM

Structure (SMILES): COc1ccc(/C=C2\CCCCC2=O)cc1
- TGI (UACC-62 melanoma): > 100 µM
- TGI (SK-MEL-28 melanoma): > 100 µM
- TGI (HOP-62 NSCLC): > 100 µM
- TGI (SF-295 CNS): > 100 µM

Structure (SMILES): CC(C)c1ccccc1NC(=O)C(=O)Cc1nc2ccccc2s1
- TGI (SNB-19 CNS): > 100 µM
- TGI (UACC-62 melanoma): > 100 µM
- TGI (SK-MEL-2 melanoma): > 100 µM
- TGI (SK-MEL-28 melanoma): > 100 µM
- TGI (HOP-62 NSCLC): > 100 µM
- TGI (HCC-2998 colon): > 100 µM
- TGI (SF-295 CNS): > 100 µM

Structure (SMILES): Cc1ccc(C2NC(=S)NC3=C2CCOc2c3ccc3ccccc23)cc1 (stereo not drawn)
- GI50 (SNB-19 CNS): > 100 µM
- TGI (SNB-19 CNS): > 100 µM
- GI50 (MDA-MB-435): 2.78 µM
- TGI (MDA-MB-435): > 100 µM
- GI50 (SK-MEL-2 melanoma): > 100 µM
- TGI (SK-MEL-2 melanoma): > 100 µM
- GI50 (SK-MEL-28 melanoma): 57.4 µM
- TGI (SK-MEL-28 melanoma): > 100 µM
- GI50 (HOP-62 NSCLC): > 100 µM
- TGI (HOP-62 NSCLC): > 100 µM
- GI50 (T-47D breast): 35.7 µM
- TGI (T-47D breast): > 100 µM
- GI50 (HCC-2998 colon): 10.8 µM
- TGI (HCC-2998 colon): > 100 µM

Structure (SMILES): C1CCN(CCC2CCCCN2)CC1 (stereo not drawn)
- TGI (SNB-19 CNS): > 100 µM
- TGI (UACC-62 melanoma): > 100 µM
- TGI (RPMI-8226 leukemia): > 100 µM
- TGI (MDA-MB-435): > 100 µM
- TGI (SK-MEL-2 melanoma): > 100 µM
- TGI (SK-MEL-28 melanoma): > 100 µM
- TGI (HOP-62 NSCLC): > 100 µM
- TGI (T-47D breast): > 100 µM
- TGI (SF-295 CNS): > 100 µM

Structure (SMILES): CCOC(=O)c1sc2nc3sc(N=Nc4ccc(Cl)cc4)c(O)n3c(=S)c2c1C
- GI50 (SNB-19 CNS): 27.4 µM
- TGI (SNB-19 CNS): > 100 µM
- GI50 (UACC-62 melanoma): 13 µM
- TGI (UACC-62 melanoma): 32.5 µM
- GI50 (RPMI-8226 leukemia): 21.4 µM
- TGI (RPMI-8226 leukemia): > 100 µM
- GI50 (MDA-MB-435): 35.2 µM
- TGI (MDA-MB-435): > 100 µM
- GI50 (SK-MEL-2 melanoma): > 100 µM
- TGI (SK-MEL-2 melanoma): > 100 µM
- GI50 (SK-MEL-28 melanoma): 28.4 µM
- TGI (SK-MEL-28 melanoma): > 100 µM
- GI50 (HOP-62 NSCLC): 30.3 µM
- TGI (HOP-62 NSCLC): > 100 µM
- GI50 (T-47D breast): 0.609 µM
- TGI (T-47D breast): 21.9 µM
- GI50 (SF-295 CNS): 31 µM
- TGI (SF-295 CNS): > 100 µM

Structure (SMILES): COc1ccc(C2=NNC(=O)OC2c2ccccc2)cc1 (stereo not drawn)
- TGI (SNB-19 CNS): > 100 µM
- TGI (UACC-62 melanoma): > 100 µM
- TGI (RPMI-8226 leukemia): > 100 µM
- TGI (SK-MEL-2 melanoma): > 100 µM
- TGI (SK-MEL-28 melanoma): > 100 µM
- TGI (HOP-62 NSCLC): > 100 µM
- TGI (HCC-2998 colon): > 100 µM
- TGI (SF-295 CNS): > 100 µM
